From PubChem BioAssay AID1963435 (Molecular Pharmacology Branch, DTP, NCI, 2024)
pIC50: −log10 of the molar value.

Tested on: PANC-1 complex spheroid growth, percent test/control
Experiment: Anticancer human tumor PANC-1 cell line growth inhibition [Asc];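 note: spheroids exposed to agents for 7 days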;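 for viability, T/C: percent viability relative to DMSO vehicle wells taken as 100%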
Details: for pIC50: curve of first compound; for viability, T/C: stronger effect = lower value
How it was run: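 Spheroid model: tumor line + HUVEC + hMSC. Single agents and combinations; top conc. at/near clinical Cmax (10 microM if undetermined), half-log dilutions. DMSO stocks at 800-fold test concentration.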

In the case of `Cn1ncnc1[C@H]1c2n[nH]c(=O)c3cc(F)cc(c23)N[C@@H]1c1ccc(F)cc1` + CNC(C)C(=O)NC1CN(S(=O)(=O)c2cccc(S(=O)(=O)N3CCC4CCC(C(=O)NC(c5ccccc5)c5ccccc5)N4C(=O)C(NC(=O)C(C)NC)C3)c2)CCC2CCC(C(=O)NC(c3ccccc3)c3ccccc3)N2C1=O, the pIC50 (second compound 0.00316 µM) was under 7.00, the pIC50 (second compound 0.01 µM) was under 7.00 and the pIC50 (second compound 0.0316 µM) was under 7.00. It also gave a pIC50 (second compound 0.1 µM) of under 7.00, a pIC50 (second compound 0.316 µM) of under 7.00 and a pIC50 (second compound 1 µM) of under 7.00. For the same compound, the viability, T/C (second compound 0.00316 µM, first compound 0.000316 µM) was 110%, the viability, T/C (second compound 0.00316 µM, first compound 0.001 µM) was 117% and the viability, T/C (second compound 0.00316 µM, first compound 0.00316 µM) was 128%. It also gave a viability, T/C (second compound 0.00316 µM, first compound 0.01 µM) of 114%, a viability, T/C (second compound 0.00316 µM, first compound 0.0316 µM) of 113% and a viability, T/C (second compound 0.00316 µM, first compound 0.1 µM) of 109%. For the same compound, the viability, T/C (second compound 0.01 µM, first compound 0.000316 µM) was 105%, the viability, T/C (second compound 0.01 µM, first compound 0.001 µM) was 108% and the viability, T/C (second compound 0.01 µM, first compound 0.00316 µM) was 99.6%. It also gave a viability, T/C (second compound 0.01 µM, first compound 0.01 µM) of 117%, a viability, T/C (second compound 0.01 µM, first compound 0.0316 µM) of 110% and a viability, T/C (second compound 0.01 µM, first compound 0.1 µM) of 111%. It also gave a viability, T/C (second compound 0.0316 µM, first compound 0.000316 µM) of 96.8%, a viability, T/C (second compound 0.0316 µM, first compound 0.001 µM) of 92.8% and a viability, T/C (second compound 0.0316 µM, first compound 0.00316 µM) of 96.6%. The viability, T/C (second compound 0.0316 µM, first compound 0.01 µM) was 109%, the viability, T/C (second compound 0.0316 µM, first compound 0.0316 µM) was 108% and the viability, T/C (second compound 0.0316 µM, first compound 0.1 µM) was 113%. It also gave a viability, T/C (second compound 0.1 µM, first compound 0.000316 µM) of 94.3%, a viability, T/C (second compound 0.1 µM, first compound 0.001 µM) of 102% and a viability, T/C (second compound 0.1 µM, first compound 0.00316 µM) of 97.3%. The viability, T/C (second compound 0.1 µM, first compound 0.01 µM) was 101%, the viability, T/C (second compound 0.1 µM, first compound 0.0316 µM) was 109% and the viability, T/C (second compound 0.1 µM, first compound 0.1 µM) was 115%. For the same compound, the viability, T/C (second compound 0.316 µM, first compound 0.000316 µM) was 109%, the viability, T/C (second compound 0.316 µM, first compound 0.001 µM) was 98.4% and the viability, T/C (second compound 0.316 µM, first compound 0.00316 µM) was 97.5%. For the same compound, the viability, T/C (second compound 0.316 µM, first compound 0.01 µM) was 99.6%, the viability, T/C (second compound 0.316 µM, first compound 0.0316 µM) was 111% and the viability, T/C (second compound 0.316 µM, first compound 0.1 µM) was 102%. For the same compound, the viability, T/C (second compound 1 µM, first compound 0.000316 µM) was 87.3%, the viability, T/C (second compound 1 µM, first compound 0.001 µM) was 107% and the viability, T/C (second compound 1 µM, first compound 0.00316 µM) was 111%. The viability, T/C (second compound 1 µM, first compound 0.01 µM) was 99%, the viability, T/C (second compound 1 µM, first compound 0.0316 µM) was 95.5% and the viability, T/C (second compound 1 µM, first compound 0.1 µM) was 102%.
